For the assay, the target named is T1, human CD73 (Homo sapiens, UniProt P21589).
T1 construct: purchased R&D Systems 5795-EN-010
T1 sequence (P21589 27-549): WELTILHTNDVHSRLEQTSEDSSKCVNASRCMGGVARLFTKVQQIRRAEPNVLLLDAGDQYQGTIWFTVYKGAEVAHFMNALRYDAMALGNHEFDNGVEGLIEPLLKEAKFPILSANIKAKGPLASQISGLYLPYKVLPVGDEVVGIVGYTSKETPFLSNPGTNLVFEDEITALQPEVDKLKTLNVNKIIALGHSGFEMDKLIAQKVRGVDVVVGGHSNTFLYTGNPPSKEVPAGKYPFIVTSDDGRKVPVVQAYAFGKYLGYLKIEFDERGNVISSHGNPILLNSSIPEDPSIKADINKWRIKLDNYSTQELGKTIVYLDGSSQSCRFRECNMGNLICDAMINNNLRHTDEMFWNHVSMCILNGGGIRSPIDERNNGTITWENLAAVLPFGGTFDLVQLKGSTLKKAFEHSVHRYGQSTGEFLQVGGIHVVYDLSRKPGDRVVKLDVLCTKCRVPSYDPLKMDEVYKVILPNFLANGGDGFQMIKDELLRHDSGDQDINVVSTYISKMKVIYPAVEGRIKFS
Put plainly: Inhibition of 5′-Nucleotidase Activity of CD73 (Assay 1). Type of assay: biochemical. The settings on record: human CD73 4 ng/ml, 50 μM CMP, 20 min at RT, malachite green readout; read-out: Assay 1: IC50, inhibition of 5′-nucleotidase activity of CD73. Here is the method:
Inhibition of 5′-Nucleotidase Activity of CD73 (Assay 1)
Compounds of the present invention were tested for the ability to inhibit CD73 enzyme activity. Tested compounds were dissolved in DMSO (50× final concentration), and 3.2 μL of the solutions added to 96-well polystyrene plates. To these wells were added, 100 μL of human CD73 (R&D Systems Cat. No. 5795-EN-010) and 57 μL of cytidine-5′-monophosphate (CMP) solutions in assay buffer (25 mM Tris-HCl, pH 7.4, 0.005% Brij-35) were added to achieve final concentrations in the assay of 4 ng/ml CD73 and 50 μM of CMP. The assay mixture was incubated for 20 min at RT. The reaction was stopped by addition of 40 μL of malachite green reagent which was prepared by mixing together 10 ml 2M H2SO4, 2.5 ml of 15% ammonium molybdate and 0.2 ml of 11% Tween-20. The mixture was agitated vigorously for 10 min at RT, and absorbance at 620 nm was determined on a microplate spectrophotometer. […] The IC50 values were derived using a non-linear 4 parameter logistic model (XLFit software, IDBS) and correspond to the inflection points on dose-response curves.

Consider `CS(=O)(=O)C(OC[C@H]1O[C@@H](n2cnc3c(N)nc(Cl)nc32)[C@H](O)[C@@H]1O)P(=O)(O)O` (single isomer, unassigned) [Example 10a], for which the IC50 (as a rule, the point on the concentration scale where inhibition reaches its midpoint) is > 1 µM. To `CCCS(=O)(=O)[C@@H](OC[C@H]1O[C@@H](n2cnc3c(N)nc(Cl)nc32)[C@H](O)[C@@H]1O)P(=O)(O)O` (single isomer, unassigned) [Example 12a] belongs > 1 µM; to `CC(C)CS(=O)(=O)[C@@H](OC[C@H]1O[C@@H](n2cnc3c(N)nc(Cl)nc32)[C@H](O)[C@@H]1O)P(=O)(O)O` (single isomer, unassigned) [Example 13a], > 1 µM; to `CCOC(=O)[C@@H](OC[C@H]1O[C@@H](n2ccc(=O)n(C)c2=O)[C@H](O)[C@@H]1O)P(=O)(O)O` (single isomer, unassigned) [Example 30a], > 1 µM. `CCOC(=O)[C@@H](OC[C@@H]1O[C@H](n2cnc3c(N)nc(C)nc32)[C@@H](O)[C@H]1O)P(=O)(O)O` (single isomer, unassigned) [Example 37a]: the IC50 is > 1 µM. With `CCOC(=O)[C@@H](OC[C@H]1O[C@@H](n2cnc3c(N)nc(-c4ccccc4)nc32)[C@H](O)[C@@H]1O)P(=O)(O)O` (single isomer, unassigned) [Example 40a], the IC50 was < 0.1 µM. As for `CCOC(=O)[C@@H](OC[C@H]1O[C@@H](n2cnc3c(N)nc(-c4cc(F)cc(F)c4)nc32)[C@H](O)[C@@H]1O)P(=O)(O)O` (single isomer, unassigned) [Example 41a], the IC50 is > 1 µM. On to `CCOC(=O)[C@@H](OC[C@H]1O[C@@H](n2cnc3c(N)nc(C(F)(F)F)nc32)[C@H](O)[C@@H]1O)P(=O)(O)O` (single isomer, unassigned) [Example 42a], for which the 50% inhibitory concentration (IC50) was > 1 µM.

Consider `CCOC(=O)[C@@H](OC[C@H]1O[C@@H](n2cnc3c(N)nc(CC(C)C)nc32)[C@H](O)[C@@H]1O)P(=O)(O)O` (single isomer, unassigned) [Example 46a], for which the IC50 was > 1 µM. As for `CCOC(=O)[C@@H](OC[C@H]1O[C@@H](n2cnc3c(N)nc(C4CC4)nc32)[C@H](O)[C@@H]1O)P(=O)(O)O` (single isomer, unassigned) [Example 50a], the IC50 is > 1 µM. To `CCOC(=O)[C@@H](OC[C@H]1O[C@@H](n2cnc3c(N)nc(C4NCCO4)nc32)[C@H](O)[C@@H]1O)P(=O)(O)O` (single isomer, unassigned) [Example 51b] belongs > 1 µM; to `CC(C)(C)OC(=O)[C@H](OC[C@H]1O[C@@H](n2cnc3c(N)nc(CN)nc32)[C@H](O)[C@@H]1O)P(=O)(O)O` (single isomer, unassigned) [Example 55], > 1 µM; to `CC(C)(C)OC(=O)[C@@H](OC[C@H]1O[C@@H](n2cnc3c(N)nc(CN)nc32)[C@H](O)[C@@H]1O)P(=O)(O)O` (single isomer, unassigned) [Example 55a], > 1 µM. For `Nc1ncnc2c1ncn2[C@@H]1O[C@H](CO[C@@H](CO)P(=O)(O)O)[C@@H](O)[C@H]1O` (single isomer, unassigned) [Example 57], the half-inhibitory concentration (IC50) was > 1 µM.

Turning to `Nc1ncnc2c1ncn2[C@@H]1O[C@H](CO[C@H](CO)P(=O)(O)O)[C@@H](O)[C@H]1O` (single isomer, unassigned) [Example 57a], the half-maximal inhibitory concentration (IC50) was > 1 µM. `Cn1c(=O)ccn([C@@H]2O[C@H](CO[C@@H](C(=O)O)P(=O)(O)O)[C@@H](O)[C@H]2O)c1=O` (single isomer, unassigned) [Example 60]: the half-inhibitory concentration (IC50) is > 1 µM. As for `Cn1c(=O)ccn([C@@H]2O[C@H](CO[C@H](C(=O)O)P(=O)(O)O)[C@@H](O)[C@H]2O)c1=O` (single isomer, unassigned) [Example 60a], the IC50 was > 1 µM.

For `Nc1nc(Cl)nc2c1ncn2[C@@H]1O[C@H](COC(C(=O)O)P(=O)(O)O)[C@@H](O)[C@H]1O` (single isomer, unassigned) [Example 61a], the IC50 was < 0.1 µM.

(Values after patent US10654884B2 (Vitae Pharmaceuticals, Inc., priority 2014, dated 2020).)
